The results in this text go back to patent US20120129811A1, “TRICYCLIC INHIBITORS OF PRO-MATRIX METALLOPROTEINASE ACTIVATION” (priority 2010, published 2012).

The target of assay [1] is T1, proMMP9 processing to active MMP9 in HFL-1 cells (Homo sapiens, UniProt P14780).
T1 construct: host or cells: HFL-1 human fetal lung fibroblasts, TNFα plus neutrophil elastase
The assay is described as follows: Activation of proMMP9 by human fetal lung fibroblast (HFL-1) cultures (Western blot). Type of assay: cell-based. As to the method:
Activation of proMMP 9 by Human Fetal Lung Fibroblast Cultures
Compound-α was assessed additionally for ability to block the maturation of proMMP9 to active MMP9 in cultures of human fetal lung fibroblasts (HFL-1, American Type Culture Collection # CCL-153). Unlike rat synoviocytes, HFL-1 cells were unable to process proMMP9 to the active form without addition of neutrophil elastase. […] Rather, the function of elastase in this assay may be to inactivate tissue inhibitors of matrix metalloproteinases (TIMPs) that repress endogenous pathways of MMP9 activation (Am J Respir Crit. Care Med; 1999; 159:1138-46).
HLF-1 were maintained in monolayer culture in DMEM with 10% FCS and were used between passage numbers 5-15. HLF-1 were embedded in collagen gels as described for rat SCW synoviocytes (vida supra). Half mL gels containing 0.4 million cells were dislodged into wells of 12 well Costar plates containing 1 mL/well of DMEM adjusted to contain 0.05% BSA and 100 ng/mL human TNFα (R&D Systems Cat #210-TA/CF). After overnight culture (37° C. and 5% CO2) wells were adjusted to contain an additional 0.5 mL of DMEM containing 0.05% BSA and with or without 13.2 μM Compound-α (final concentration was 3.3 μM Compound-α). Next, cultures were adjusted to contain 30 nM human elastase (Innovative Research). The plates were cultured an additional 72 hrs, at which time MMP9 secreted into the conditioned media was bound to gelatin-sepharose and evaluated by Western blot analysis as described for the rat synoviocyte cultures (vida supra). mAb-51/82 detected three forms of MMP9 in HFL-1 cultures.
A second experiment was performed to determine if the 80 kD form was mature active MMP9 and to determine the potency of Compound-α as an inhibitor of MMP9 maturation in this assay. HFL-1 cells embedded in collagen gels were cultured as described above in the presence of TNFα overnight and the cultures were then adjusted to contain 30 nM elastase and graded concentrations of Compound-α for an additional 72 hrs at which time MMP9 secreted into the conditioned media was bound to gelatin-sepharose and evaluated by Western blot analysis for active MMP9 using pAb-1246 raised against the N-terminal neoepitope of active MMP9 (Table 5). In the absence of Compound-α, pAb-1246 readily detected MMP9 with an electrophoretic mobility of approximately 80 kD. […] Inhibition occurred over a dose range with an IC50 of approximately 0.3 μM Compound-α.

A further assay has as its target T2, MMP9 (Rattus norvegicus, UniProt P50282).
T2 construct: Pro and active MMP9 were abundantly present in ankles of SCW-induced vehicle-treated rats; from tissue; host or cells: tibia-tarsus joints (ankles) of female Lewis rats
The assay is described as follows: Western blot of pro and active MMP9 in ankles of rats with SCW-induced arthritis. The format is in vivo. The following applies: Day 26, four hours after AM dose. As to the method: Hind-limbs were skinned, severed just above the tibia-tarsus joint and below the metatarsals, and the tibia-tarsus joints (ankles) were weighed, snap frozen and pulverized on dry ice using a hammer and anvil. The pulverized tissue was suspended in 3 volumes (w:v) of ice-cold homogenization buffer containing 50 mM Tris pH 7.5, 150 mM NaCl, 5 mM EDTA, 1% Triton X100, 0.05% Brij 30, 10% dimethylsulfoxide and Complete EDTA-free Protease Inhibitor Cocktail (Roche Diagnostics). The suspended tissue was homogenized sequentially with a Kinematica AG Polytron and a Dounce homogenizer. Homogenates were centrifuged at 16,000×g for 10 min at 4° C. and the soluble fractions were saved. Dimethylsulfoxide was removed from a portion of each soluble fraction using PD MiniTrap™ G-25 desalting columns (GE Healthcare). Homogenates (0.25 mL), free of DMSO, were diluted with an equal volume of binding buffer (i.e., homogenization buffer without dimethylsufoxide) and adjusted to contain 50 μL of a 50% slurry of gelatin-conjugated sepharose. Following 2 hours of rotation at 4° C. the beads were washed twice in binding buffer and eluted in 100 μL 2×-reducing Laemmli buffer with heating to 95° C. for 5 minutes. […]
A general note: Immunoblotting shows a protein as a band on a membrane.

T1 sequence (P14780 20-707 limits assumed): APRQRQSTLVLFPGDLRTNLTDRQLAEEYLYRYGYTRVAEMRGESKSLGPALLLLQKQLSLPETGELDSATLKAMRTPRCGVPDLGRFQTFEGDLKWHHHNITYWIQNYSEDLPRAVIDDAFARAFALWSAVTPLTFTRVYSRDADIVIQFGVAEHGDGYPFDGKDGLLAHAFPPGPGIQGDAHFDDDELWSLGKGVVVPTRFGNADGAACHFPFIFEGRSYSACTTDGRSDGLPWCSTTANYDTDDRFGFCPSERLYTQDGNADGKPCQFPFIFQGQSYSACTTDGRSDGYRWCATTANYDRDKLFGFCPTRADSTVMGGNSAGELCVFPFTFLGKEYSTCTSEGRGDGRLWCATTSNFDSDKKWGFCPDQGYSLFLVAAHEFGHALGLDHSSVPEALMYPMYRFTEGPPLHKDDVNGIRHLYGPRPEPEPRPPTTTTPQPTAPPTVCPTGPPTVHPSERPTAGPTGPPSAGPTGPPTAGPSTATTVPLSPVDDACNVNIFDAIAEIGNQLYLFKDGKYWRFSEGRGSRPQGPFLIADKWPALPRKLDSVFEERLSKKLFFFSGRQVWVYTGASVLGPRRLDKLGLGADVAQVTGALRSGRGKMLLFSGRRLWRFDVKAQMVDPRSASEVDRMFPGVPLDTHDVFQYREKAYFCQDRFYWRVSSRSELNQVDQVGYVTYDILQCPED
T2 sequence (P50282 108-708): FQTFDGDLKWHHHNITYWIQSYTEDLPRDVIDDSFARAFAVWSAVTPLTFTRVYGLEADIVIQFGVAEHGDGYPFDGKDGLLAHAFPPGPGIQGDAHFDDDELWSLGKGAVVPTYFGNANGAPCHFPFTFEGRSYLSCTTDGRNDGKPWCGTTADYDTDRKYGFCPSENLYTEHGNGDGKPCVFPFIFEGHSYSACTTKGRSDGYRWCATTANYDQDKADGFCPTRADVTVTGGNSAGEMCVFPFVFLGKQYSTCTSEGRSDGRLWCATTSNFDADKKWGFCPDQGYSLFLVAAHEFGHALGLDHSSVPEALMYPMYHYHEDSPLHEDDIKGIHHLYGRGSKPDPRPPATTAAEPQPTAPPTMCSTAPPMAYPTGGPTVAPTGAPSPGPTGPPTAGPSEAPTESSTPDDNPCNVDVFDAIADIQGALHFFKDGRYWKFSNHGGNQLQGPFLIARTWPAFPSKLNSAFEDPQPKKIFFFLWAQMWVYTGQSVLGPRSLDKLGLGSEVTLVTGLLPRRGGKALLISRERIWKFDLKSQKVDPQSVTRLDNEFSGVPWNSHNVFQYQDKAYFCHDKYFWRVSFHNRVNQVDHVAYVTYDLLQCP

On to `Cc1nc(C)c(-c2csc(Nc3cc(S(N)(=O)=O)ccc3OC(C)C)n2)s1` [Compound α, 3-(2′,4′-Dimethyl-[4,5′]bithiazolyl-2-ylamino)-4-isopropoxy-benzenesulfonamide.HBr], for which the “Signal, Total” value in assay [1] (3.3 μM Compound-α, 30 nM elastase, final 72 hrs, mAb-L51/82) is 91346 INT * mm^2. In addition, in assay [1] (3.3 μM Compound-α, mAb-L51/82), the “Percent of total signal, 80 kD” value is given as 7%; the “Percent of total signal, 86 kD” value stood at 47%; the “Percent of total signal, 100 kD” value was 46%. For the same compound, the inhibition at 0.12 µM in assay [1] (HFL1, 0.12 μM Compound-α, active MMP9, pAb-1246) was determined as 0%. In assay [1] (HFL1, 0.37 μM Compound-α, active MMP9, pAb-1246), this compound showed an inhibition at 0.37 µM of 73%. For the same compound, 1.1 µM produced 99% inhibition in assay [1] (HFL1, 1.1 μM Compound-α, active MMP9, pAb-1246). Also, in assay [1] (HFL1, 3.3 μM Compound-α, active MMP9, pAb-1246), at 3.3 µM the inhibition was 100%. This compound yielded an inhibition at 10 µM in assay [1] (HFL1, 10 μM Compound-α, active MMP9, pAb-1246) of 100%. The IC50 in assay [1] (HFL-1 cultures, pAb-1246, read-out: IC50 for inhibition of processing of proMMP9 to active MMP9) was around 300 nM. The “effect on abundance of proMMP9 in ankles” value at MMP9 (mAb-L51/82) is “did not reduce the abundance of proMMP-9”. For the same compound, on MMP9 (mAb-L51/82, listed as Compound-α), the “effect on abundance of proMMP9 in ankles” value was “did not reduce the abundance of proMMP9”.

One may read the inhibition as the share of the control response that was lost under treatment. Read a low inhibition as a weak effect. As a reminder, the IC50 is the concentration needed to halve the response being measured.
